Experiments:
Type in all cases: in vivo
[1] = tested on: ragweed (common ragweed, Ambrosia elatior); test: Test A preemergence, ragweed; conditions: 0 to 100 scale (0 no effect, 100 complete control), approx. 10 d
From the text: (§1) Seeds of plant species selected from barnyardgrass (Echinochloa crus-galli), kochia (Kochia scoparia), ragweed (common ragweed, Ambrosia elatior), ryegrass, Italian (Italian ryegrass, Lolium multiflorum), foxtail, green (green foxtail, Setaria viridis), and pigweed (Amaranthus retroflexus) were planted into a blend of loam soil and sand and treated preemergence with a directed soil spray using test chemicals formulated in a non-phytotoxic solvent mixture which included a surfactant. At the same time, plants selected from these weed species and also wheat (Triticum aestivum), corn (Zea mays), blackgrass (Alopecurus myosuroides), and galium (catchweed bedstraw, Galium aparine) were planted in pots containing the same blend of loam soil and sand and treated with postemergence applications of test chemicals formulated in the same manner. Plants ranged in height from 2 to 10 cm and were in the one- to two-leaf stage for the postemergence treatment. Treated plants and untreated controls were maintained in a greenhouse for approximately 10 d, after which time all treated plants were compared to untreated controls and visually evaluated for injury. Plant response ratings, summarized in Table A, are based on a 0 to 100 scale where 0 is no effect and 100 is complete control. A dash (-) response means no test result.

[2] = tested on: barnyardgrass (Echinochloa crus-galli); test: Test A postemergence, barnyardgrass; conditions: 0 to 100 scale (0 no effect, 100 complete control), approx. 10 d
From the text: as §1

[3] = tested on: foxtail, green (green foxtail, Setaria viridis); test: Test A preemergence, green foxtail; conditions: 0 to 100 scale (0 no effect, 100 complete control), approx. 10 d
From the text: as §1

[4] = tested on: sedge, umbrella (small-flower umbrella sedge, Cyperus difformis); test: Test B flooded paddy test, umbrella sedge; conditions: Flood, 250 g ai/ha; applied to paddy water at 2-leaf stage; visual rating after 13 to 15 d; scale 0 to 100, 0 is no effect, 100 is complete control
Description: (§2) Plant species in the flooded paddy test selected from rice (Oryza sativa), sedge, umbrella (small-flower umbrella sedge, Cyperus difformis), ducksalad (Heteranthera limosa), and barnyardgrass (Echinochloa crus-galli) were grown to the 2-leaf stage for testing. At time of treatment, test pots were flooded to 3 cm above the soil surface, treated by application of test compounds directly to the paddy water, and then maintained at that water depth for the duration of the test. Treated plants and controls were maintained in a greenhouse for 13 to 15 d, after which time all species were compared to controls and visually evaluated. Plant response ratings, summarized in Table B, are based on a scale of 0 to 100 where 0 is no effect and 100 is complete control. A dash (-) response means no test result.

[5] = tested on: foxtail, green (green foxtail, Setaria viridis); test: Test A postemergence, green foxtail; conditions: 0 to 100 scale (0 no effect, 100 complete control), approx. 10 d
From the text: as §1

kochia (Kochia scoparia) [6] = test: Test A postemergence, kochia; conditions: 0 to 100 scale (0 no effect, 100 complete control), approx. 10 d
From the text: as §1

[7] = tested on: pigweed (Amaranthus retroflexus); test: Test A postemergence, pigweed; conditions: 0 to 100 scale (0 no effect, 100 complete control), approx. 10 d
From the text: as §1

[8] = tested on: ducksalad (Heteranthera limosa); test: Test B flooded paddy test, ducksalad; conditions: Flood, 250 g ai/ha; applied to paddy water at 2-leaf stage; visual rating after 13 to 15 d; scale 0 to 100, 0 is no effect, 100 is complete control
Description: as §2

[9] = tested on: blackgrass (Alopecurus myosuroides); test: Test A postemergence, blackgrass; conditions: 0 to 100 scale (0 no effect, 100 complete control), approx. 10 d
From the text: as §1

[10] = tested on: pigweed (Amaranthus retroflexus); test: Test A preemergence, pigweed; conditions: 0 to 100 scale (0 no effect, 100 complete control), approx. 10 d
From the text: as §1

corn (Zea mays) = test: Test A postemergence, corn; conditions: 0 to 100 scale (0 no effect, 100 complete control), approx. 10 d
From the text: as §1

[11] = tested on: barnyardgrass (Echinochloa crus-galli); test: Test B flooded paddy test, barnyardgrass; conditions: Flood, 250 g ai/ha; applied to paddy water at 2-leaf stage; visual rating after 13 to 15 d; scale 0 to 100, 0 is no effect, 100 is complete control
Description: as §2

[12] = tested on: ragweed (common ragweed, Ambrosia elatior); test: Test A postemergence, ragweed; conditions: 0 to 100 scale (0 no effect, 100 complete control), approx. 10 d
From the text: as §1

[13] = tested on: wheat (Triticum aestivum); test: Test A postemergence, wheat; conditions: 0 to 100 scale (0 no effect, 100 complete control), approx. 10 d
From the text: as §1

rice (Oryza sativa) = test: Test B flooded paddy test, rice; conditions: Flood, 250 g ai/ha; applied to paddy water at 2-leaf stage; visual rating after 13 to 15 d; scale 0 to 100, 0 is no effect, 100 is complete control
Description: as §2

kochia (Kochia scoparia) [14] = test: Test A preemergence, kochia; conditions: 0 to 100 scale (0 no effect, 100 complete control), approx. 10 d
From the text: as §1

[15] = tested on: ryegrass, Italian (Italian ryegrass, Lolium multiflorum); test: Test A preemergence, Italian ryegrass; conditions: 0 to 100 scale (0 no effect, 100 complete control), approx. 10 d
From the text: as §1

[16] = tested on: barnyardgrass (Echinochloa crus-galli); test: Test A preemergence, barnyardgrass; conditions: 0 to 100 scale (0 no effect, 100 complete control), approx. 10 d
From the text: as §1

[17] = tested on: ryegrass, Italian (Italian ryegrass, Lolium multiflorum); test: Test A postemergence, Italian ryegrass; conditions: 0 to 100 scale (0 no effect, 100 complete control), approx. 10 d
From the text: as §1

[18] = tested on: galium (catchweed bedstraw, Galium aparine); test: Test A postemergence, galium; conditions: 0 to 100 scale (0 no effect, 100 complete control), approx. 10 d
From the text: as §1

Structure (SMILES)	Plant response rating, Ragweed ([1]; 31 g ai/ha)	Plant response rating, Ragweed ([1]; 125 g ai/ha)	Plant response rating, Barnyardgrass ([2]; 31 g ai/ha)	Plant response rating, Barnyardgrass ([2]; 125 g ai/ha)	Plant response rating, Foxtail, Green ([3]; 31 g ai/ha)	Plant response rating, Foxtail, Green ([3]; 125 g ai/ha)	Plant response rating, Sedge, Umbrella [4]	Plant response rating, Foxtail, Green ([5]; 31 g ai/ha)	Plant response rating, Foxtail, Green ([5]; 125 g ai/ha)	Plant response rating, Kochia (kochia (Kochia scoparia) [6]; 31 g ai/ha)	Plant response rating, Kochia (kochia (Kochia scoparia) [6]; 125 g ai/ha)	Plant response rating, Pigweed ([7]; 31 g ai/ha)	Plant response rating, Pigweed ([7]; 125 g ai/ha)	Plant response rating, Ducksalad [8]	Plant response rating, Blackgrass ([9]; 31 g ai/ha)	Plant response rating, Blackgrass ([9]; 125 g ai/ha)	Plant response rating, Pigweed ([10]; 31 g ai/ha)	Plant response rating, Pigweed ([10]; 125 g ai/ha)	Plant response rating, Corn (corn (Zea mays); 31 g ai/ha)	Plant response rating, Corn (corn (Zea mays); 125 g ai/ha)	further results
CCNC(=O)C1(C(=O)Nc2cccc(F)c2F)C(=O)N(C)CC1c1ccc(C(F)(F)F)cc1 (stereo not drawn) [Compound 7]	0	0	0	10	0	80	0	0	20	0	0	10	30	75	0	0	0	10	0	0	Plant response rating, Barnyardgrass [11]: 0; Plant response rating, Ragweed ([12]; 31 g ai/ha): 0; Plant response rating, Ragweed ([12]; 125 g ai/ha): 0; Plant response rating, Wheat ([13]; 31 g ai/ha): 0; Plant response rating, Wheat ([13]; 125 g ai/ha): 0; Plant response rating, Rice (rice (Oryza sativa)): 30; Plant response rating, Kochia (kochia (Kochia scoparia) [14]; 31 g ai/ha): 0; Plant response rating, Kochia (kochia (Kochia scoparia) [14]; 125 g ai/ha): 0; Plant response rating, Ryegrass, Italian ([15]; 31 g ai/ha): 0; Plant response rating, Ryegrass, Italian ([15]; 125 g ai/ha): 0; Plant response rating, Barnyardgrass ([16]; 31 g ai/ha): 0; Plant response rating, Barnyardgrass ([16]; 125 g ai/ha): 70; Plant response rating, Ryegrass, Italian ([17]; 31 g ai/ha): 0; Plant response rating, Ryegrass, Italian ([17]; 125 g ai/ha): 10; Plant response rating, Galium ([18]; 31 g ai/ha): 0; Plant response rating, Galium ([18]; 125 g ai/ha): 30
CC(C)NC(=O)C1(C(=O)Nc2cccc(F)c2F)C(=O)N(C)CC1c1ccc(C(F)(F)F)cc1 (stereo not drawn) [Compound 8]	0	0	0	0	0	0	0	0	0	0	0	0	0	0	0	0	0	0	0	0	Plant response rating, Barnyardgrass [11]: 0; Plant response rating, Ragweed ([12]; 31 g ai/ha): 0; Plant response rating, Ragweed ([12]; 125 g ai/ha): 0; Plant response rating, Wheat ([13]; 31 g ai/ha): 0; Plant response rating, Wheat ([13]; 125 g ai/ha): 0; Plant response rating, Rice (rice (Oryza sativa)): 0; Plant response rating, Kochia (kochia (Kochia scoparia) [14]; 31 g ai/ha): 0; Plant response rating, Kochia (kochia (Kochia scoparia) [14]; 125 g ai/ha): 0; Plant response rating, Ryegrass, Italian ([15]; 31 g ai/ha): 0; Plant response rating, Ryegrass, Italian ([15]; 125 g ai/ha): 0; Plant response rating, Barnyardgrass ([16]; 31 g ai/ha): 0; Plant response rating, Barnyardgrass ([16]; 125 g ai/ha): 0; Plant response rating, Ryegrass, Italian ([17]; 31 g ai/ha): 0; Plant response rating, Ryegrass, Italian ([17]; 125 g ai/ha): 0; Plant response rating, Galium ([18]; 31 g ai/ha): 0; Plant response rating, Galium ([18]; 125 g ai/ha): 0
